The nature of experiment [1]: Cytotoxicity against human BCG823 cells after 48 hrs by sulforhodamine B assay. It counts as functional, cell-based. The following applies: BCG823, 48 h. A general note: In SRB staining, fixed cells bind dye roughly in proportion to their protein.
The test system of the next experiment is Bel-7402. As to the kind of experiment: Cytotoxicity against human Bel7402 cells after 48 hrs by sulforhodamine B assay. It counts as functional, cell-based. The following applies: Bel-7402, 48 h.

The term IC50 denotes the concentration that gives 50% inhibition. A lower IC50 goes with higher potency. For the compound `C[C@@H]1O[C@@H](O[C@@H]2C[C@H]3CC[C@@H]4[C@H](CC[C@]5(C)[C@@H](C6=CC(=O)OC6)CC[C@]45O)[C@@]3(C)[C@H](O)C2)[C@H](O)[C@H](O)[C@H]1O`, the results for the IC50 (in experiment [1]; with Bel-7402) were 56 nM and 240 nM, respectively.
For `C[C@]12CC[C@H](O[C@@H]3OC[C@@H](O)[C@H](O)[C@H]3O)C[C@@]1(O)CC[C@@H]1[C@@H]2CC[C@]2(C)[C@@H](C3=CC(=O)OC3)CC[C@]12O`, in that order: 230 nM and 480 nM.
As for `C[C@@H]1O[C@@H](O[C@H]2CC[C@@]3(C=O)[C@H](CC[C@@H]4[C@@H]3CC[C@]3(C)[C@@H](C5=CC(=O)OC5)CC[C@]43O)C2)[C@H](O)[C@H](O)[C@H]1O[C@@H]1O[C@H](CO)[C@@H](O)[C@H](O)[C@H]1O`, the IC50 in experiment [1] is 290 nM; in the experiment on Bel-7402 it was 870 nM.
Turning to `C[C@H]1O[C@@H](O[C@H]2CC[C@]3(C)[C@H]4CC[C@]5(C)[C@@H](C6=CC(=O)OC6)CC[C@]5(O)[C@@H]4CC[C@]3(O)C2)[C@H](O)[C@@H](O)[C@H]1O`, the IC50 in experiment [1] came out at 120 nM; with Bel-7402, 400 nM.
For `C[C@H]1O[C@@H](O[C@H]2CC[C@]3(C)[C@H]4CC[C@]5(C)[C@@H](C6=CC(=O)OC6)CC[C@]5(O)[C@@H]4CC[C@]3(O)C2)[C@H](O)[C@@H](O)[C@@H]1O`, in that order: 70 nM and 310 nM.
The matching figures for `C[C@@H]1O[C@@H](O[C@H]2CC[C@]3(C=O)[C@H]4CC[C@]5(C)[C@@H](C6=CC(=O)OC6)CC[C@]5(O)[C@@H]4CC[C@]3(O)C2)[C@H](O)[C@H](O)[C@H]1O` [CONVALLATOXIN]: 16 nM and 50 nM.
For `C[C@]12CC[C@H]3[C@@H](CC[C@]4(O)C[C@@H](O[C@@H]5OC[C@@H](O)[C@H](O)[C@H]5O)CC[C@]34C=O)[C@@]1(O)CC[C@@H]2C1=CC(=O)OC1`, in that order: 16 nM and 130 nM.
In the case of `C[C@@H]1O[C@@H](O[C@H]2CC[C@@]3(CO)[C@H](CC[C@@H]4[C@@H]3CC[C@]3(C)[C@@H](C5=CC(=O)OC5)CC[C@]43O)C2)[C@H](O)[C@H](O)[C@H]1O`, the IC50 in experiment [1] came to 77 nM; in the experiment on Bel-7402 it was 28 nM.
For `C[C@H]1O[C@@H](O[C@H]2CC[C@]3(C=O)[C@H]4CC[C@]5(C)[C@@H](C6=CC(=O)OC6)CC[C@]5(O)[C@@H]4CC[C@]3(O)C2)[C@H](O)[C@@H](O)[C@@H]1O`, in that order: 100 nM and 20 nM.

Source of the values: ChEMBL document CHEMBL1141287, “Cardenolides from Saussurea stella with cytotoxicity toward cancer cells” (J Nat Prod, 2007).
